Results on 21 molecules are retold here after patent US20220388953A1, “COMPOUNDS WITH ANTIMICROBIAL ACTIVITY” (The Hong Kong Polytechnic University, priority 2018, published 2022).

Structures are written as SMILES. Values after ≈ are worked out from the molar mass of the structure shown. Where two headings read alike, the source gives them in different places.

For orientation: MIC means the lowest concentration found to suppress growth. One may read the melting point as the temperature, or range, at which the solid turns liquid.

One data set concerns β′ CH −σ^A interaction. As to the kind of experiment: ELISA-based binding assay using σ^A and a GST-tagged β′ subunit fragment (β′-CH). The conditions noted are these: inhibitor compounds used at 500 μM (FIG. 3). The arrangement: species or system Bacillus subtilis. The protocol: FIG. 3 depicts a graph showing assay results of hit compound activity determined by ELISA of the β′ CH −σ^A interaction. Inhibitor compounds C1-C7 were used at 500 μM.
(In general: An ELISA detects its analyte on a solid surface through an enzyme-linked reagent.)

Data set [1] concerns Streptococcus pneumoniae (Klein) Chester (ATCC 49619). As to the kind of experiment: Antimicrobial assay, broth microdilution (CLSI), MIC. It counts as cell-based. The procedure:
C3 derivatives were synthesized and antimicrobial activity measured against Streptococcus pneumoniae (MIC, minimum inhibitory concentration).
Bacterial Strains was used in this study is Streptococcus pneumoniae (Klein) Chester (ATCC® 49619™)
The antimicrobial activity of the compounds was determined by broth microdilution according to the Clinical & Laboratory Standards Institute (CLSI) guidelines. The test medium was cation-adjusted Mueller-Hinton broth (MH). Serial two-fold dilutions were performed for the tested chemicals starting from 256 μg/mL to 0.5 μg/mL, and the bacterial cell inoculum was adjusted to approximately 5×10^5 CFU/mL. Results were taken after 20 h of incubation at 37° C. The MIC was defined as the lowest concentration of antibiotic with no visible growth. Experiments were performed in duplicates.
For orientation: In broth dilution the organism is exposed to a series of concentrations in liquid medium.

[2] abbreviates: ATCC49619, Table 1, Streptococcus pneumoniae ATCC 49619, 20 h at 37° C., read-out: MIC.
The mark [3] stands for this setting: Streptococcus pneumoniae, ATCC49619, 20 h.

Take `Nc1ccccc1Sc1ccc(C(=O)c2ccccc2C(=O)O)cc1[N+](=O)[O-]` [C3-1, 2-(4-((2-Aminophenyl)thio)-3-nitrobenzoyl)benzoic Acid]: in the data set on β′ CH −σ^A interaction, the “inhibitory activity against the binding of σ^A and β′ fragments” value was “possessed inhibitory activity”.

For the molecule `O=C(O)c1ccccc1C(=O)c1ccc(Sc2ccccn2)c([N+](=O)[O-])c1` [C3-4, 2-(3-Nitro-4-(pyridin-2-ylthio)benzoyl)benzoic Acid], the melting point lay within 205 to 206 °C. For the same molecule, the MIC in data set [1] (setting [2]) is more than 256 µg/mL.

`CC(C)Nc1cccc(Sc2ccc(C(=O)c3ccccc3C(=O)O)cc2[N+](=O)[O-])c1` [C3-7, 2-(4-((3-(Isopropylamino)phenyl)thio)-3-nitrobenzoyl)benzoic Acid]: the melting point lay within 130 to 132 °C. Further, the minimum inhibitory concentration (MIC) in data set [1] (setting [2]) turned out to be 32 µg/mL (≈ 73.3 µM). On the same counts, the results for `CC(=O)Nc1cccc(Sc2ccc(C(=O)c3ccccc3C(=O)O)cc2[N+](=O)[O-])c1` [C3-8, 2-(4-((3-Acetamidophenyl)thio)-3-nitrobenzoyl)benzoic Acid] are 144 to 146 °C and 256 µg/mL (≈ 587 µM).

Molecule `O=C(Nc1cccc(Sc2ccc(C(=O)c3ccccc3C(=O)O)cc2[N+](=O)[O-])c1)c1ccccc1` [C3-9, 2-(4-((3-Benzamidophenyl)thio)-3-nitrobenzoyl)benzoic Acid] showed a melting point of 144 to 145 °C. Besides, the MIC in data set [1] (setting [2]) was found to be 32 µg/mL (≈ 64.2 µM). `O=C(O)c1ccccc1C(=O)c1ccc(Sc2ccc(Cl)cc2Cl)c([N+](=O)[O-])c1` [C3-11, 2-(4-((2,4-Dichlorophenyl)thio)-3-nitrobenzoyl)benzoic Acid] registered a melting point of 260 to 262 °C. In addition, the MIC in data set [1] (setting [3]) turned out to be 32 µg/mL (≈ 71.4 µM). On the same counts, the results for `Cc1ccc(Sc2ccc(C(=O)c3ccccc3C(=O)O)cc2[N+](=O)[O-])c(C)c1` [C3-12, 2-(4-((2,4-Dimethylphenyl)thio)-3-nitrobenzoyl)benzoic Acid] are 240 to 242 °C and 32 µg/mL (≈ 78.5 µM).

The molecule `CCN(CC)C(=O)c1ccc(Sc2ccc(C(=O)c3ccccc3C(=O)O)cc2[N+](=O)[O-])c([N+](=O)[O-])c1` [C3-14, 2-(4-((4-(Diethylcarbamoyl)-2-nitrophenyl)thio)-3-nitrobenzoyl)benzoic Acid] returned a melting point of 129 to 130 °C. This molecule came in with an MIC in data set [1] (setting [3]) of 256 µg/mL (≈ 489 µM). The matching figures for `Cc1cccc([N+](=O)[O-])c1Sc1ccc(C(=O)c2ccccc2C(=O)O)cc1[N+](=O)[O-]` [C3-15, 2-(4-((2-Methyl-6-nitrophenyl)thio)-3-nitrobenzoyl)benzoic Acid]: 269 to 271 °C and 128 µg/mL (≈ 292 µM). In the case of `Cc1occc1Sc1ccc(C(=O)c2ccccc2C(=O)O)cc1[N+](=O)[O-]` [C3-16, 2-(4-((2-Methylfuran-3-yl)thio)-3-nitrobenzoyl)benzoic Acid], the melting point was 198 to 199 °C. Also, the MIC in data set [1] (setting [2]) came to 256 µg/mL (≈ 668 µM). In turn, `Nc1ccccc1Nc1ccc(C(=O)c2ccccc2C(=O)O)cc1[N+](=O)[O-]` [C3-17, 2-(4-((2-Aminophenyl)amino)-3-nitrobenzoyl)benzoic Acid] registered a melting point of 201 to 202 °C. This molecule yielded an MIC in data set [1] (setting [3]) of more than 256 µg/mL. The molecule `Cc1cccc(Nc2ccc(C(=O)c3ccccc3C(=O)O)cc2[N+](=O)[O-])c1` [C3-18, 2-(3-Nitro-4-(m-tolylamino)benzoyl)benzoic Acid] displayed a melting point of 90 to 92 °C. Further, the MIC in data set [1] (setting [2]) was 128 µg/mL (≈ 340 µM). On the same counts, the results for `O=C(O)c1ccccc1C(=O)c1ccc(Nc2cccc(CO)c2)c([N+](=O)[O-])c1` [C3-19, 2-(4-((3-(Hydroxymethyl)phenyl)amino)-3-nitrobenzoyl)benzoic Acid] are 132 to 134 °C and more than 256 µg/mL. On to `CC(C)(C)c1cccc(Nc2ccc(C(=O)c3ccccc3C(=O)O)cc2[N+](=O)[O-])c1` [C3-21, 2-(4-((3-(tert-Butyl)phenyl)amino)-3-nitrobenzoyl)benzoic Acid], for which the melting point lay in the range of 110 to 112 °C. Further, the minimum inhibitory concentration (MIC) in data set [1] (setting [2]) was determined as 256 µg/mL (≈ 612 µM). The matching figures for `NC(=O)c1cccc(Nc2ccc(C(=O)c3ccccc3C(=O)O)cc2[N+](=O)[O-])c1` [C3-22, 2-(4-((3-Carbamoylphenyl)amino)-3-nitrobenzoyl)benzoic Acid]: 139 to 141 °C and more than 256 µg/mL. Turning to `O=C(O)c1ccccc1C(=O)c1ccc(Nc2ccc(Cl)c(Cl)c2)c([N+](=O)[O-])c1` [C3-23, 2-(4-((3,4-Dichlorophenyl)amino)-3-nitrobenzoyl)benzoic Acid], the melting point fell in the range of 115 to 117 °C. In data set [1] (setting [3]), 64 µg/mL (≈ 148 µM) was the least that counted as inhibitory (MIC).

Turning to `COc1ccc(Nc2ccc(C(=O)c3ccccc3C(=O)O)cc2[N+](=O)[O-])cc1` [C3-24, 2-(4-((4-Methoxyphenyl)amino)-3-nitrobenzoyl)benzoic Acid], the melting point was 225 to 226 °C. Further, in data set [1] (setting [2]), the MIC was more than 256 µg/mL. Take `O=C(O)c1ccccc1C(=O)c1ccc(Nc2ccccc2)c([N+](=O)[O-])c1` [C3-25, 2-(3-Nitro-4-(phenylamino)benzoyl)benzoic Acid]: the melting point lay in the range of 184 to 186 °C. Further, it took 256 µg/mL (≈ 707 µM) to inhibit growth in data set [1] (setting [3]) (MIC). For the molecule `O=C(O)c1ccccc1C(=O)c1ccc(Nc2cccc3cccnc23)c([N+](=O)[O-])c1` [C3-26, 2-(3-Nitro-4-(quinolin-8-ylamino)benzoyl)benzoic Acid], the melting point fell in the range of 151 to 153 °C. The MIC in data set [1] (setting [2]) was more than 256 µg/mL. The matching figures for `O=C(O)c1ccccc1C(=O)c1ccc(Nc2nccs2)c([N+](=O)[O-])c1` [C3-27, 2-(3-Nitro-4-(thiazol-2-ylamino)benzoyl)benzoic Acid]: 99 to 100 °C and more than 256 µg/mL. On the same counts, the results for `O=C(O)c1ccccc1C(=O)c1ccc(NCc2ccccc2)c([N+](=O)[O-])c1` [C3-29, 2-(4-(Benzylamino)-3-nitrobenzoyl)benzoic Acid] are 88 to 90 °C and 256 µg/mL (≈ 680 µM).
